Experiment: Measurement of particle size by the microscopic method
Assay type: physicochemical
Conditions: no treatment; for weight of the material that would pass through the 250 μm sieve: share by weight; for particles smaller than 30 μm: share of all particles
Experimental: The drawings represent results of measurement of the particle size of the product prepared according to Example 2 by a microscopic method.
For all the batches, measurement of particle size was performed without any treatment using the microscopic method.

SMILES	maximum crystal size	maximum crystal size (listed as batch II)	weight of the material that would pass through the 250 μm sieve	weight of the material that would pass through the 250 μm sieve (listed as batch II)	particles smaller than 30 μm	particles smaller than 30 μm (listed as batch II)	maximum crystal size (listed as batch III)	weight of the material that would pass through the 250 μm sieve (listed as batch III)	particles smaller than 30 μm (listed as batch III)	maximum crystal size (listed as batch I)	weight of the material that would pass through the 250 μm sieve (listed as batch I)	particles smaller than 30 μm (listed as batch I)
Cc1ccc(O)c([C@H](CCN(C(C)C)C(C)C)c2ccccc2)c1.O=C(O)C(O)C(O)C(=O)O [Batch II, R-tolterodine tartarate]	439 μm	439 μm	47.2%	47.2%	94.73%	94.73%	–	–	–	–	–	–
Cc1ccc(O)c([C@H](CCN(C(C)C)C(C)C)c2ccccc2)c1.O=C(O)C(O)C(O)C(=O)O [Batch III, R-tolterodine tartarate]	702 μm	–	41.3%	–	89.29%	–	702 μm	41.3%	89.29%	–	–	–
Cc1ccc(O)c([C@H](CCN(C(C)C)C(C)C)c2ccccc2)c1.O=C(O)C(O)C(O)C(=O)O [Batch I, R-tolterodine tartarate]	623 μm	–	40.9%	–	91.95%	–	–	–	–	623 μm	40.9%	91.95%

Source: patent US20100189786A1, “CRYSTALLINE TOLTERODINE TARTARATE AND A PHARMACEUTICAL COMPOSITION CONTAINING THE SAME” (priority 2006, published 2010)
